Format in all cases: cell-based
The target in one assay is T1, AR (Homo sapiens, UniProt P10275, T878A).
T1 construct: endogenous in cells; host or cells: LNCaP
T1 sequence (P10275 1-920 T878A): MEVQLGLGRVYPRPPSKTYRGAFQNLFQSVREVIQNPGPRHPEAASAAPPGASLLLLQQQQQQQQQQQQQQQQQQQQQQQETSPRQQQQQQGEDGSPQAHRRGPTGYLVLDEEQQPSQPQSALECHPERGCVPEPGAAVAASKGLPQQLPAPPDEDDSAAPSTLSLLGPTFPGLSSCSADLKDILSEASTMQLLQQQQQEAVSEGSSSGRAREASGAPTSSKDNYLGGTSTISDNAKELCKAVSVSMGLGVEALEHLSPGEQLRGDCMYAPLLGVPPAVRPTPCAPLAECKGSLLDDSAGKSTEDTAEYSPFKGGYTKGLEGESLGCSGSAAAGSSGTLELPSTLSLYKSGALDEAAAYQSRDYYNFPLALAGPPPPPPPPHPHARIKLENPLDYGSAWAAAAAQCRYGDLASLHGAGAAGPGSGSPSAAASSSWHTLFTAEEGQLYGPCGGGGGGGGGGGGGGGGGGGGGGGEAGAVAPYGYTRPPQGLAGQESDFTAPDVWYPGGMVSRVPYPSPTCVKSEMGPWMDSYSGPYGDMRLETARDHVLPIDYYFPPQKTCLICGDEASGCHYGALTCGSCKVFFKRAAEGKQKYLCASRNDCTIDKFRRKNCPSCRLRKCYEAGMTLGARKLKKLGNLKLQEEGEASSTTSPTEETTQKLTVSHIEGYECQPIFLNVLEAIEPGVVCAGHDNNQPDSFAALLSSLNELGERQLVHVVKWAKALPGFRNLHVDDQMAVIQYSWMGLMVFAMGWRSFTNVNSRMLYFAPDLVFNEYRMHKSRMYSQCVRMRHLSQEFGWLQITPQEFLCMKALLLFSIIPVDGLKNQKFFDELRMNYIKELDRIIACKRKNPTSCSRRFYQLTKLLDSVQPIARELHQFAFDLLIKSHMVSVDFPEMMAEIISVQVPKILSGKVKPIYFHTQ
The assay can be described thus: In vitro AR degradation activity test in LNCaP cells (ELISA, OD450). The note with it: LNCaP cells, 24 hours. As to the method:
The cells were then digested with trypsin and counted using an automated cell counter. The cell suspension was diluted to the desired density in growth medium. The cell suspension was then seeded into 96-well plates at 100 μL per well, and the plates were incubated at 37° C. with 5% CO2 for 24 hours. The compounds were then diluted 200-fold to the final concentration with DMSO or 3-fold to the final concentration with culture medium. 50 μL of compound solution was transferred to the 96-well plate and incubated at 37° C. for 24 hours. After 24 hours of incubation, the cell plate was washed 3 times with DPBS, 100 μL of 1× lysis buffer was added to each well, and placed on ice for 30 minutes. The supernatant was collected. The protein in the cell lysate samples was quantified and then diluted to the required concentration. 100 μL of cell lysate sample was added to the appropriate wells, sealed with tape and pressed firmly on top of the wells, and the plate was incubated at 37° C. for 2 hours. The plate contents were then discarded, and washed 4 times with 1× wash buffer, 200 μL per well each time. 100 μL of reconstituted detection antibody was then added, the plate was sealed with tape and incubated at 37° C. for 1 hour. The aspiration/wash step was then repeated, 100 μL of reconstituted HRP-Linked secondary antibody was added to each well, the plate was sealed with tape and incubated at 37° C. for 30 minutes. The aspiration/wash step was then repeated, 100 μL of substrate solution was added to each well and incubated at 37° C. for 10 minutes, and finally 100 μL of stop solution was added to each well. The plate was gently tapped to ensure thorough mixing, and the OD450 nm was recorded.
Degradation rate (%)=(OD450_max−OD450_sample)/(OD450_max−OD450_min)×100,plotted using GraphPad Prism 5 software, and IC50 is calculated using SPSS software.
Background: ELISA stands for enzyme-linked immunosorbent assay.

The subject of a further assay is TMPRSS2. The experiment in a line: TMPRSS2 mRNA expression in A549 cells (qPCR). The note with it: for TMPRSS2 mRNA level: 10 μM, 1 nM DHT, 48 h, Blank = 1. In general terms: Real-time PCR tracks product formation cycle by cycle.
In the next assay the test system is ACE2. The experiment in a line: ACE2 mRNA expression in A549 cells (qPCR). The note with it: for ACE2 mRNA level: 10 μM, 1 nM DHT, 48 h, Blank = 1.
A further assay deals with LNCaP cells. The experiment in a line: In vitro LNCaP cell proliferation inhibition test (CellTiter-Glo). The note with it: 6 days. As to the method: (§1) The cells were then digested with trypsin and counted using an automated cell counter to determine cell density. The cell suspension was diluted to the desired density in growth medium. Subsequently, 100 μL of the cell suspension was seeded into 96-well plates and incubated at 37° C. with 5% CO2 for 24 hours. 10 μL of drug solution (including 3-fold serial dilutions of compounds or DMSO) was added to each well, and the plates were incubated at 37° C. with 5% CO2 for 6 days. Prior to measurement, the assay plates were equilibrated to room temperature. 40 μL of CellTiter-Glo® reagent was added to each well. The plates were mixed on an orbital shaker for 2 minutes to induce cell lysis. After incubation at room temperature for 60 minutes to stabilize the luminescence signal, the plates were read on an Envision plate reader.
For orientation: ATP-based viability assays read luminescence as a measure of living cells.

Assay [1] has as its system 22RV1 prostate cancer cells. The experiment in a line: Anti-proliferative activity against resistant 22RV1 cells expressing AR-V7. Conditions: 22RV1 cells, in words. As to the method:
as §1
The experimental procedure was essentially the same as that for LNCaP cells.

SMILES strings stand for the structures.

What is called DC50 is the concentration giving 50% degradation. A higher DC50 goes with a less potent degrader.

`C[C@]12CC[C@H](NC(=O)c3ccnnc3)CC1=CCC1C2CC[C@]2(C)C(n3cnc([N+](=O)[O-])c3)=CCC12` (stereo partly drawn) [Compound 21] yielded a DC50 on AR of 3.31 µM. In the assay with TMPRSS2, the “Expression of TMPRSS2 protein, in words” value is “significantly downregulate” and the “TMPRSS2 mRNA level” value is on record as 0.196. In the assay with ACE2, the “Expression of ACE2 protein, in words” value is “significantly downregulate” and the “ACE2 mRNA level” value was 0.234.

On to `CNC(=O)c1ccc(N2C(=S)N(c3ccc(C#N)c(C(F)(F)F)c3)C(=O)C2(C)C)cc1F` [Enzalutamide, enzalutamide, reference compound], for which, in the assay on LNCaP cells, the “Maximum Inhibition (%)” value was found to be 55.16%. The “Activity against tumor cells expressing AR splice variants” value in assay [1] is “no activity”.

With `CC1(C)C(=O)N(c2ccc(C#N)c(C(F)(F)F)c2F)C(=S)N1c1ccc(CCCc2ncco2)nc1` [Proxalutamide, proxalutamide, reference compound], the “TMPRSS2 mRNA level” value with TMPRSS2 is 0.608. In addition, the “ACE2 mRNA level” value in the assay with ACE2 turned out to be 0.463.

The values are drawn from patent US20250073249A1, “STEROID COMPOUND, AND PREPARATION METHOD THEREFOR AND USE THEREOF” (SHANGHAI INSTITUTE OF MATERIA MEDICA, CHINESE ACADEMY OF …, priority 2022, published 2025).
